Results taken from publication PMC9290002, “Development of Urea-Bond-Containing Michael Acceptors as Antitrypanosomal Agents Targeting Rhodesain” (ACS Medicinal Chemistry Letters, 2022).
Where two headings read alike, the source gives them in different places.

Key:
[1] = target: T1, rhodesain (Trypanosoma brucei rhodesiense, UniProt Q95PM0); conditions: cited from earlier work; for RD, k2nd: Figure 1
[2] = tested on: BSF of T.b.; design: method as in PMID 19620707; conditions: bloodstream form; Figure 1; cited from earlier work
[3] = tested on: T. b. brucei; design: method as in PMID 31714776, PMID 28763614; conditions: Figure 1; cited from earlier work
[4] = target: T1, rhodesain; assay: Rhodesain fluorogenic enzyme assay (Cbz-Phe-Arg-AMC); assay type: biochemical; conditions: for Ki: dissociation constant of noncovalent E·I complex, corrected to zero substrate concentration; for Rhodesain k2nd: k2nd = kinact/Ki
[5] = tested on: T. b. brucei; assay: Antitrypanosomal activity against cultured T. b. brucei (ATPlite assay); assay type: cell-based; conditions: Trypanosoma brucei, 24 h
Description: All the urea derivatives were tested against cultured T. b. brucei, which expresses rhodesain similarly to T. b. rhodesiense. […] The difference in terms of rhodesain inhibition and antitrypanosomal activity observed for 1 could be due to its poor cell membrane permeability. In fact, we assume that the presence of substituents on the phenyl ring at the P3 position, as well as the extension of the aromatic region, could influence the crossing of cell membranes.
EC50 values for the antitrypanosomal activity were determined using the ATPlite assay as previously

[6] = target: human cathepsin L (hCatL) (Homo sapiens, UniProt P07711); assay: Enzyme assay towards hCatL; assay type: biochemical
Chain of human cathepsin L (hCatL) (P07711 114-333): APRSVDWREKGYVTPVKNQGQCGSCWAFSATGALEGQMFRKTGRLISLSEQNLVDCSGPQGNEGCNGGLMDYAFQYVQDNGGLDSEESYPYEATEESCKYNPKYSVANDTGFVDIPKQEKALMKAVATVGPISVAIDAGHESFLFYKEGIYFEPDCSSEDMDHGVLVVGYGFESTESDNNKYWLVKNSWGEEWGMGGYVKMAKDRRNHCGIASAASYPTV

[7] = target: T2, main protease (Mpro) of SARS-CoV-2 (Severe acute respiratory syndrome coronavirus 2, UniProt P0DTD1); assay: Enzyme assay towards SARS-CoV-2 Mpro, preliminary screening; assay type: biochemical; conditions: preliminary screening at 100 μM; read-out: SARS-CoV-2 Mpro percentage of inhibition
T2 construct: the main protease (M^pro) of SARS-CoV-2
Description: In light of this, dilution assays characterizing the mode of inhibition were not performed. Since poor inhibition was shown by the Phe-containing analogues, the Leu derivatives 25 and 26 were not tested against SARS-CoV-2 M^pro.
In all the manipulations regarding the biological evaluation, no unexpected or unusually high safety hazards […]
Enzyme assays towards rhodesain.
The biological activity against rhodesain was evaluated by fluorescence-based assays and all tested compounds were diluted in DMSO. Rhodesain was recombinantly expressed as previously reported2,3 and Cbz-Phe-Arg-AMC (10 µM) was used as the fluorogenic substrate. In the preliminary screening at 0.1 µM, the substrate hydrolysis was determined over a period of 10 min at rt and fluorescence intensity was measured every 30 seconds, whereas the kinetic parameters after the dilutions were determined over a period of 30 min. The assay buffer (pH 5.5) contains 50 mM of sodium acetate, 5 mM of EDTA, 200 mM of NaCl, and 0.005% of Brij 35. Enzyme buffer (pH 5.5) contains 5 mM of DTT and the same chemicals used for assay buffer, with exception of Brij 35. Each independent assay was carried-out twice in duplicate using 96-well-plates in a final volume of 200 µL. Infinity 200 PRO microplate (Tecan, Männedorf, Switzerland) was employed as the fluorescence reader, and a 380 nm excitation filter and a 460 nm emission filter were used.
The first-order inactivation rate costants (k obs) were determined analyzing the progress curves by nonlinear regression analysis using the equation 1 shown in the Chart S1. 4 The obtained k obs values were fitted against the inhibito concentrations to the hyperbolic equation 2, providing the k inact and K iapp values. The latter were corrected to zero substrate concentration by the term (1+[S]/K m) in equation 3. The K m value used to correct K iapp values was determined to 0.9 μM. 5 K i and k inac values were calculated by nonlinear regression analyses using GraFit.6 The second-order rate constants k 2nd = k inact/K i were easily determined from the […]
Chart S1. Equations 1, 2, and 3.
Enzyme assays towards hCatL.
The biological evaluation towards hCatL was performed following the procedure reported in the literature.7 Enzyme assays towards SARS-CoV-2 Mpro.
The biological activity of novel Michael acceptors 1-9 against SARS-CoV-2 M pro was carried-out following the previously described protocol.8
Antitrypanosomal activity.
(1 picture or pasted object on this page, not shown here)

T1 sequence (Q95PM0 entry or part of it): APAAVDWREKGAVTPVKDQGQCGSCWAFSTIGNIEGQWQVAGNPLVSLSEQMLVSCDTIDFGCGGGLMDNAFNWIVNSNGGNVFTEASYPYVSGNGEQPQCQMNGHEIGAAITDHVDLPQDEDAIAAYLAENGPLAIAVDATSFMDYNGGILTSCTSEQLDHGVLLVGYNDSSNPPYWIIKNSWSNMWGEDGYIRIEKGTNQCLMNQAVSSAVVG

Row | SMILES | Ki [1] | Rhodesain k2nd [1] | Rhodesain kinact [1] | RD, k2nd [1] | BSF of T.b., ED50 [2] | EC50 [3] | Ki [4] | EC50 [5] | Ki [6] | hCatL k2nd [6] | kinact [6] | inhibition at 100 µM [7] | Rhodesain k2nd [4]
1 | CC(C)C[C@H](NC(=O)[C@H]1O[C@@H]1C(=O)O)C(=O)NCCCCN=C(N)N [E64] | 35 ± 5 nM | 261 ± 27 ×10^3 M^–1 min^–1 | 0.0090 ± 0.0004 min^–1 |  |  |  |  |  |  |  |  |  | 
2 | CN1CCN(C(=O)N[C@@H](Cc2ccccc2)C(=O)N[C@H](/C=C/S(=O)(=O)c2ccccc2)CCc2ccccc2)CC1 [K11777] |  | 9000 ×10^3 M^–1 min^–1 |  | 150000 M⁻¹ s⁻¹ | 900 nM |  |  |  |  |  |  |  | 
3 | CC(=O)/C=C/[C@H](CCc1ccccc1)NC(=O)[C@H](Cc1ccccc1)NC(=O)c1ccc(F)cc1 [PS-1] |  |  |  | 1.47e+07 M⁻¹ s⁻¹ |  | 3600 nM |  |  |  |  |  |  | 
4 | CC(=O)/C=C/[C@H](CCc1ccccc1)NC(=O)[C@H](Cc1ccccc1)NC(=O)OCc1ccccc1 [RK-52] |  |  |  | 1.12e+06 M⁻¹ s⁻¹ |  | 2970 nM |  |  |  |  |  |  | 
5 | CC(=O)/C=C/[C@H](CCc1ccccc1)NC(=O)[C@H](Cc1ccccc1)NC(=O)Nc1ccccc1 [compound 1, (S)-N-((S,E)-6-Oxo-1-phenylhept-4-en-3-yl)-3-phenyl-2-(3-phenylureido)propenamide] |  |  |  |  |  |  | 0.15 ± 0.06 nM | 19800 ± 2670 nM | 0.11 ± 0.01 nM | 5920 ± 150 x 103M-1 min-1 | 1e-05 s⁻¹ | 33 to 66% | 
6 | COc1ccc(NC(=O)N[C@@H](Cc2ccccc2)C(=O)N[C@H](/C=C/C(C)=O)CCc2ccccc2)cc1 [compound 2, (S)-2-(3-(4-Methoxyphenyl)ureido)-N-((S,E)-6-oxo-1-phenylhept-4-en-3-yl)-3-phenylpropanamide] |  |  |  |  |  |  | 1.05 ± 0.33 nM | 2080 ± 220 nM | 81.9 ± 1.06 nM | 9 ± 1 x 103M-1 min-1 | 1.33e-05 s⁻¹ | 33 to 66% | 5820 ± 490 ×10^3 M^–1 min^–1
7 | CC(=O)/C=C/[C@H](CCc1ccccc1)NC(=O)[C@H](Cc1ccccc1)NC(=O)Nc1ccc(C)cc1 [compound 3, (S)-N-((S,E)-6-Oxo-1-phenylhept-4-en-3-yl)-3-phenyl-2-(3-(p-tolyl)ureido)propanamide] |  |  |  |  |  |  | 0.51 ± 0.38 nM | 1390 ± 230 nM | 1.32 ± 0.25 nM | 360 ± 106 x 103M-1 min-1 | 7.5e-06 s⁻¹ | 33 to 66% | 
8 | CC(=O)/C=C/[C@H](CCc1ccccc1)NC(=O)[C@H](Cc1ccccc1)NC(=O)Nc1ccc(F)cc1 [compound 4, (S)-2-(3-(4-Fluorophenyl)ureido)-N-((S,E)-6-oxo-1-phenylhept-4-en-3-yl)-3-phenylpropanamide] |  |  |  |  |  |  | 0.85 ± 0.07 nM | 1510 ± 80 nM | 0.1 ± 0.01 nM | 5880 ± 120 x 103M-1 min-1 | 1e-05 s⁻¹ | 33 to 66% | 2480 ± 50 ×10^3 M^–1 min^–1
9 | CC(=O)/C=C/[C@H](CCc1ccccc1)NC(=O)[C@H](Cc1ccccc1)NC(=O)Nc1c(F)cccc1F [compound 5, (S)-2-(3-(2,6-Difluorophenyl)ureido)-N-((S,E)-6-oxo-1-phenylhept-4-en-3-yl)-3-phenylpropanamide] |  |  |  |  |  |  | 1.13 ± 0.26 nM | 3200 ± 280 nM | 2.14 ± 0.25 nM | 326 ± 8 x 103M-1 min-1 | 1.17e-05 s⁻¹ | 33 to 66% | 2030 ± 230 ×10^3 M^–1 min^–1
10 | CC(=O)/C=C/[C@H](CCc1ccccc1)NC(=O)[C@H](Cc1ccccc1)NC(=O)Nc1ccc(Cl)cc1 [compound 6, (S)-2-(3-(4-Chlorophenyl)ureido)-N-((S,E)-6-oxo-1-phenylhept-4-en-3-yl)-3-Phenylpropanamide] |  |  |  |  |  |  | 0.78 ± 0.13 nM | 1500 ± 240 nM | 3.11 ± 1.63 nM | 321 ± 152 x 103M-1 min-1 | 1.25e-05 s⁻¹ | 33 to 66% | 2990 ± 300 ×10^3 M^–1 min^–1
11 | CC(=O)/C=C/[C@H](CCc1ccccc1)NC(=O)[C@H](Cc1ccccc1)NC(=O)Nc1ccc(Cl)cc1C [compound 7, (S)-2-(3-(4-Chloro-2-methylphenyl)ureido)-N-((S,E)-6-oxo-1-phenylhept-4-en-3-yl)-3-phenylpropanamide] |  |  |  |  |  |  | 0.51 ± 0.36 nM | 1650 ± 70 nM | 0.18 ± 0.03 nM | 3110 ± 160 x 103M-1 min-1 | 9.17e-06 s⁻¹ | 33 to 66% | 
12 | CC(=O)/C=C/[C@H](CCc1ccccc1)NC(=O)[C@H](Cc1ccccc1)NC(=O)Nc1ccc(Cl)cc1C(F)(F)F [compound 8, (S)-2-(3-(4-Chloro-2-(trifluoromethyl)phenyl)ureido)-N-((S,E)-6-oxo-1-phenylhept-4-en-3-yl)-3-phenylpropanamide] |  |  |  |  |  |  | 1.04 ± 0.31 nM | 1280 ± 40 nM | 2.27 ± 0.43 nM | 256 ± 71 x 103M-1 min-1 | 9.17e-06 s⁻¹ | 33 to 66% | 6050 ± 790 ×10^3 M^–1 min^–1
13 | CC(=O)/C=C/[C@H](CCc1ccccc1)NC(=O)[C@H](Cc1ccccc1)NC(=O)Nc1cccc2ccccc12 [compound 9, (S)-2-(3-(Naphthalen-1-yl)ureido)-N-((S,E)-6-oxo-1-phenylhept-4-en-3-yl)-3-phenylpropanamide] |  |  |  |  |  |  | 2.51 ± 1.51 nM | 2280 ± 270 nM | 0.051 ± 0.001 nM | 12820 ± 1050 x 103M-1 min-1 | 1.08e-05 s⁻¹ | 33 to 66% | 4170 ± 1360 ×10^3 M^–1 min^–1
14 | CC(=O)/C=C/[C@H](CCc1ccccc1)NC(=O)[C@H](CC(C)C)NC(=O)Nc1ccc(C)cc1 [compound 25, (S)-4-Methyl-N-((S,E)-6-oxo-1-phenylhept-4-en-3-yl)-2-(3-(p-tolyl)ureido)pentanamide] |  |  |  |  |  |  | 0.42 ± 0.08 nM | 1540 ± 90 nM | 0.64 ± 0.02 nM | 2120 ± 6 x 103M-1 min-1 | 2.25e-05 s⁻¹ |  | 
15 | CC(=O)/C=C/[C@H](CCc1ccccc1)NC(=O)[C@H](CC(C)C)NC(=O)Nc1ccc(Cl)cc1C [compound 26, (S)-2-(3-(4-chloro-2-methylphenyl)ureido)-4-methyl-N-((S,E)-6-oxo-1-phenylhept-4-en-3-yl)pentanamide] |  |  |  |  |  |  | 0.93 ± 0.52 nM | 1120 ± 50 nM | 0.07 ± 0.03 nM | 14240 ± 5410 x 103M-1 min-1 | 1.42e-05 s⁻¹ |  | 
